This note sets out measurements from patent US10144817B2, “Active and intelligent additive, polymer and article” (Braskem S.A., priority 2010, dated 2018).

The data set can be described thus: Decomposition temperature of sensitive compounds and of the encapsulated additives. It is filed as physicochemical. To be noted: not encapsulated. The text has this:
The sensitive compounds set forth in Table 1 constitute preferred examples of compounds that may be used in the preparation of the active and intelligent additive according to the present invention. The sensitive compounds release a certain amount of electrons according to the characteristic reaction for each compound.

For `O=C1O[C@H]([C@@H](O)CO)C(O)=C1O` [Ascorbic Acid], the “Decomposition Temperature of the Sensitive Compound” value worked out at 190 °C.

With Citric Acid, the “Decomposition Temperature of the Sensitive Compound” value came to 175 °C.
